The values below come from US8658604B2, “Template-fixed beta-hairpin peptidomimetics with protease inhibitory activity” (Polyphor Ltd, priority 2005, dated 2014).

Where a SMILES comes first, the peptide text is derived from it.

For experiment [1], the target named is Trypsin, from human pancreas (Homo sapiens, UniProt P07477). In words: Enzymatic assay, trypsin.
The target in experiment [2] is T1, CathepsinG, from human neutrophils (Homo sapiens, UniProt P08311).
T1 sequence (P08311 21-244): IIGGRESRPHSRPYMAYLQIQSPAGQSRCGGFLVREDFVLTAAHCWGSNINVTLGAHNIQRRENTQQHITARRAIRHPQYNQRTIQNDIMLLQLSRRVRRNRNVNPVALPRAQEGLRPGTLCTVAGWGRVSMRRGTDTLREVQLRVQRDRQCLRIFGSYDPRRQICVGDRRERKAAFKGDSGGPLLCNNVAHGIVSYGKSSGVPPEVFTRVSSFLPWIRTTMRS
Put plainly: Enzymatic assay, cathepsin G. The following applies: Cathepsin G IC50.

Experiment [3] addresses T2, Elastase from human neutrophils (Homo sapiens, UniProt P08246).
T2 sequence (P08246 30-267): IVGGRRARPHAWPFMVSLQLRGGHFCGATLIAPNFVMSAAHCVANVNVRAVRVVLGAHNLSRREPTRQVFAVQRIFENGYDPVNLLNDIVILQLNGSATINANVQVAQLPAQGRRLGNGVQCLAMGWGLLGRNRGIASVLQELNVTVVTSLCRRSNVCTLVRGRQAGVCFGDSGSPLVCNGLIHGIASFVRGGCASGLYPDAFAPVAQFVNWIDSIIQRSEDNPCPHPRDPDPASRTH
In words: Enzymatic assay, elastase. The following applies: at 100 μM (stated in cell instead of IC50).

Experiment [4] has as its system Tryptase, from human lung. In words: Enzymatic assay, tryptase. The note with it: for IC50: read-out: Tryptase IC50.

By IC50 is commonly meant the point on the concentration scale where inhibition reaches its midpoint. Turning to `CC[C@H](C)[C@@H]1NC(=O)[C@@H]2CCCN2C(=O)[C@@H]2CCCN2C(=O)[C@H](CC(=O)O)NC(=O)[C@H](CO)NC(=O)[C@H](CCCCN)NC(=O)[C@H]([C@@H](C)O)NC(=O)[C@@H]2CSSC[C@H](NC1=O)C(=O)N[C@@H](CO)C(=O)N1CCC[C@@H]1C(=O)N1CCC[C@H]1C(=O)N[C@@H](Cc1ccc(N)cc1)C(=O)N2` [Ex. 9] (HELM PEPTIDE1{[Nc1ccc(C[C@H](N[*:1])C(=O)[*:2])cc1].C.T.K.S.D.P.P.I.C.S.[dP].P}$PEPTIDE1,PEPTIDE1,2:R3-10:R3|PEPTIDE1,PEPTIDE1,1:R1-13:R2$$$V2.0), the “Trypsin at 100 μM %” value in experiment [1] worked out at 88.1%. Also, the IC50 in experiment [2] amounted to 105 nM. Further, the “Elastase at 100 μM %” value in experiment [3] stood at 4.1 at %.
As for `CC[C@H](C)[C@@H]1NC(=O)[C@@H]2CCCN2C(=O)[C@@H]2CCCN2C(=O)[C@H](CC(=O)O)NC(=O)[C@H](CO)NC(=O)[C@H](CCCCN)NC(=O)[C@H]([C@@H](C)O)NC(=O)[C@@H]2CSSC[C@H](NC1=O)C(=O)N[C@@H](CO)C(=O)N[C@H](CC(=O)O)C(=O)N1CCC[C@H]1C(=O)N[C@@H](Cc1ccccc1)C(=O)N2` [Ex. 46] (HELM PEPTIDE1{F.C.T.K.S.D.P.P.I.C.S.[dD].P}$PEPTIDE1,PEPTIDE1,2:R3-10:R3|PEPTIDE1,PEPTIDE1,1:R1-13:R2$$$V2.0), the “Tryptase at 100 μM %” value in experiment [4] (at 100 μM) was found to be 44.1%.
`CC[C@H](C)[C@@H]1NC(=O)[C@@H]2CCCN2C(=O)[C@@H]2CCCN2C(=O)[C@H](CC(=O)O)NC(=O)[C@H](CO)NC(=O)[C@H](CCCCN)NC(=O)[C@H]([C@@H](C)O)NC(=O)[C@@H]2CSSC[C@H](NC1=O)C(=O)N[C@@H](CO)C(=O)N1CCC[C@@H]1C(=O)N[C@@H](CC(C)C)C(=O)N[C@@H](Cc1ccccc1)C(=O)N2` [Ex. 74] (HELM PEPTIDE1{C.S.[dP].L.F.C.T.K.S.D.P.P.I}$PEPTIDE1,PEPTIDE1,1:R3-6:R3|PEPTIDE1,PEPTIDE1,1:R1-13:R2$$$V2.0): the “Trypsin at 100 μM %” value in experiment [1] turned out to be 86%.
Consider `CC[C@H](C)[C@@H]1NC(=O)[C@@H]2CCCN2C(=O)[C@H]2CCCN2C(=O)[C@H](CCCNC(=N)N)NC(=O)[C@@H]2CSSC[C@H](NC1=O)C(=O)N[C@@H]([C@@H](C)O)C(=O)N[C@@H](CCCCN)C(=O)N[C@@H](CO)C(=O)N[C@@H](CC(C)C)C(=O)N1CCC[C@H]1C(=O)N1CCC[C@H]1C(=O)N[C@@H]([C@@H](C)CC)C(=O)N2` [Ex. 180] (HELM PEPTIDE1{I.C.T.K.S.L.P.P.I.C.R.[dP].P}$PEPTIDE1,PEPTIDE1,2:R3-10:R3|PEPTIDE1,PEPTIDE1,1:R1-13:R2$$$V2.0), for which the IC50 was < 100 nM in experiment [4], 60 nM in experiment [1] and 120 nM in experiment [2].
With `CC[C@H](C)[C@@H]1NC(=O)[C@@H]2CCCN2C(=O)[C@H]2CCCN2C(=O)[C@H](CCCNC(=N)N)NC(=O)[C@@H]2CSSC[C@H](NC1=O)C(=O)N[C@@H]([C@@H](C)O)C(=O)N[C@@H](CCCCN)C(=O)N[C@@H](CO)C(=O)N[C@@H](CCc1ccccc1)C(=O)N1CCC[C@H]1C(=O)N1CCC[C@H]1C(=O)N[C@@H]([C@@H](C)CC)C(=O)N2` [Ex. 181] (HELM PEPTIDE1{I.C.T.K.S.[O=C([C@H](CCc1ccccc1)N[*:1])[*:2]].P.P.I.C.R.[dP].P}$PEPTIDE1,PEPTIDE1,2:R3-10:R3|PEPTIDE1,PEPTIDE1,1:R1-13:R2$$$V2.0), the values for the 50% inhibitory concentration (IC50) in experiment [4], in experiment [1] and in experiment [2] were 40 nM, 113 nM and 127 nM, respectively.
`CC[C@H](C)[C@@H]1NC(=O)[C@@H]2CCCN2C(=O)[C@H]2CCCN2C(=O)[C@H](CCCNC(=N)N)NC(=O)[C@@H]2CSSC[C@H](NC1=O)C(=O)N[C@@H]([C@@H](C)O)C(=O)N[C@@H](CCCCN)C(=O)N[C@@H](CO)C(=O)N[C@@H](CC1CCCCC1)C(=O)N1CCC[C@H]1C(=O)N1CCC[C@H]1C(=O)N[C@@H]([C@@H](C)CC)C(=O)N2` [Ex. 182] (HELM PEPTIDE1{I.C.T.K.S.[Cha].P.P.I.C.R.[dP].P}$PEPTIDE1,PEPTIDE1,2:R3-10:R3|PEPTIDE1,PEPTIDE1,1:R1-13:R2$$$V2.0): the half-inhibitory concentration (IC50) in experiment [4] was 39 nM; in experiment [1] it was 59 nM; in experiment [2] it was 111 nM.
As to `CC[C@H](C)[C@@H]1NC(=O)[C@@H]2CCCN2C(=O)[C@H]2CCCN2C(=O)[C@H](CCCNC(=N)N)NC(=O)[C@@H]2CSSC[C@H](NC1=O)C(=O)N[C@@H]([C@@H](C)O)C(=O)N[C@@H](CCCCN)C(=O)N[C@@H](CO)C(=O)N[C@@H](Cc1ccc(O)cc1)C(=O)N1CCC[C@H]1C(=O)N1CCC[C@H]1C(=O)N[C@@H]([C@@H](C)CC)C(=O)N2` [Ex. 183] (HELM PEPTIDE1{I.C.T.K.S.Y.P.P.I.C.R.[dP].P}$PEPTIDE1,PEPTIDE1,2:R3-10:R3|PEPTIDE1,PEPTIDE1,1:R1-13:R2$$$V2.0), the IC50 in experiment [4] was 25 nM; in experiment [1], 146 nM; in experiment [2], 243 nM.
Consider `CC[C@H](C)[C@@H]1NC(=O)[C@@H]2CCCN2C(=O)[C@@H]2CCCN2C(=O)[C@H](CC(C)C)NC(=O)[C@H](CO)NC(=O)[C@H](CCCCN)NC(=O)[C@H]([C@@H](C)O)NC(=O)[C@@H]2CSSC[C@H](NC1=O)C(=O)N[C@@H](CCCNC(=N)N)C(=O)N1CCC[C@@H]1C(=O)N1CCC[C@H]1C(=O)N[C@@H](Cc1ccccc1)C(=O)N2` [Ex. 184] (HELM PEPTIDE1{F.C.T.K.S.L.P.P.I.C.R.[dP].P}$PEPTIDE1,PEPTIDE1,2:R3-10:R3|PEPTIDE1,PEPTIDE1,1:R1-13:R2$$$V2.0), for which the IC50 in experiment [4] amounted to 27 nM; in experiment [1], 48 nM; in experiment [2] it was 221 nM.
Taken in the same sequence, the figures for `CC[C@H](C)[C@@H]1NC(=O)[C@@H]2CCCN2C(=O)[C@H]2CCCN2C(=O)[C@H](CCCNC(=N)N)NC(=O)[C@@H]2CSSC[C@H](NC1=O)C(=O)N[C@@H]([C@@H](C)O)C(=O)N[C@@H](CCCCN)C(=O)N[C@@H](CO)C(=O)N[C@@H](CC(C)C)C(=O)N1CCC[C@H]1C(=O)N1CCC[C@H]1C(=O)N[C@@H](CCCNC(=N)N)C(=O)N2` [Ex. 185] (HELM PEPTIDE1{I.C.T.K.S.L.P.P.R.C.R.[dP].P}$PEPTIDE1,PEPTIDE1,2:R3-10:R3|PEPTIDE1,PEPTIDE1,1:R1-13:R2$$$V2.0) were 14 nM, 126 nM and 514 nM.
In the case of `CC[C@H](C)[C@@H]1NC(=O)[C@@H]2CCCN2C(=O)[C@H]2CCCN2C(=O)[C@H](CCCNC(=N)N)NC(=O)[C@@H]2CSSC[C@H](NC1=O)C(=O)N[C@@H]([C@@H](C)O)C(=O)N[C@@H](CCCCN)C(=O)N[C@@H](CO)C(=O)N[C@@H](CC(C)C)C(=O)N1CCC[C@H]1C(=O)N1CCC[C@H]1C(=O)N[C@@H](CCCCN)C(=O)N2` [Ex. 186] (HELM PEPTIDE1{I.C.T.K.S.L.P.P.K.C.R.[dP].P}$PEPTIDE1,PEPTIDE1,2:R3-10:R3|PEPTIDE1,PEPTIDE1,1:R1-13:R2$$$V2.0), the IC50 in experiment [4] was determined as 15 nM; in experiment [1], 99 nM; in experiment [2], 337 nM.
Taken in the same sequence, the figures for `CC[C@H](C)[C@@H]1NC(=O)[C@@H]2CCCN2C(=O)[C@H]2CCCN2C(=O)[C@H](CCCNC(=N)N)NC(=O)[C@@H]2CSSC[C@H](NC1=O)C(=O)N[C@@H]([C@@H](C)O)C(=O)N[C@@H](CCCCN)C(=O)N[C@@H](CO)C(=O)N[C@@H](CC(C)C)C(=O)N1CCC[C@H]1C(=O)N1CCC[C@H]1C(=O)N[C@@H](Cc1c[nH]cn1)C(=O)N2` [Ex. 187] (HELM PEPTIDE1{I.C.T.K.S.L.P.P.H.C.R.[dP].P}$PEPTIDE1,PEPTIDE1,2:R3-10:R3|PEPTIDE1,PEPTIDE1,1:R1-13:R2$$$V2.0) were < 100 nM, 39 nM and 158 nM.
In the case of `CC[C@H](C)[C@@H]1NC(=O)[C@@H]2CCCN2C(=O)[C@H]2CCCN2C(=O)[C@H](CCCNC(=N)N)NC(=O)[C@@H]2CSSC[C@H](NC1=O)C(=O)N[C@@H]([C@@H](C)O)C(=O)N[C@@H](CCCCN)C(=O)N[C@@H](CO)C(=O)N[C@@H](CC(C)C)C(=O)N1CCC[C@H]1C(=O)N1CCC[C@H]1C(=O)N[C@@H](CCC(N)=O)C(=O)N2` [Ex. 188] (HELM PEPTIDE1{I.C.T.K.S.L.P.P.Q.C.R.[dP].P}$PEPTIDE1,PEPTIDE1,2:R3-10:R3|PEPTIDE1,PEPTIDE1,1:R1-13:R2$$$V2.0), the IC50 in experiment [4] is < 100 nM; in experiment [1] it was 34 nM; in experiment [2] it was 105 nM.
In the case of `CC[C@H](C)[C@@H]1NC(=O)[C@@H]2CCCN2C(=O)[C@H]2CCCN2C(=O)[C@H](CCCNC(=N)N)NC(=O)[C@@H]2CSSC[C@H](NC1=O)C(=O)N[C@@H]([C@@H](C)O)C(=O)N[C@@H](CCCCN)C(=O)N[C@@H](CO)C(=O)N[C@@H](CC(C)C)C(=O)N1CCC[C@H]1C(=O)N1CCC[C@H]1C(=O)N[C@@H]([C@@H](C)O)C(=O)N2` [Ex. 189] (HELM PEPTIDE1{I.C.T.K.S.L.P.P.T.C.R.[dP].P}$PEPTIDE1,PEPTIDE1,2:R3-10:R3|PEPTIDE1,PEPTIDE1,1:R1-13:R2$$$V2.0), the half-maximal inhibitory concentration (IC50) in experiment [4] was < 100 nM; in experiment [1], 39 nM; in experiment [2], 164 nM.
Taken in the same sequence, the figures for `CC[C@H](C)[C@@H]1NC(=O)[C@@H]2CCCN2C(=O)[C@H]2CCCN2C(=O)[C@H](CCCCN)NC(=O)[C@@H]2CSSC[C@H](NC1=O)C(=O)N[C@@H]([C@@H](C)O)C(=O)N[C@@H](CCCCN)C(=O)N[C@@H](CO)C(=O)N[C@@H](CC(C)C)C(=O)N1CCC[C@H]1C(=O)N1CCC[C@H]1C(=O)N[C@@H](CCCNC(=N)N)C(=O)N2` [Ex. 190] (HELM PEPTIDE1{I.C.T.K.S.L.P.P.R.C.K.[dP].P}$PEPTIDE1,PEPTIDE1,2:R3-10:R3|PEPTIDE1,PEPTIDE1,1:R1-13:R2$$$V2.0) were < 100 nM, 172 nM and 1500 nM.
